Experimental data published in patent US9878982B2, “Pyridine derivatives and anti-mycobacterial use thereof” (priority 2014, dated 2018).
≈ marks a conversion by molar mass, not a printed value.

Columns and labels:
Vero Cell = test: Vero cell cytotoxicity (IC50); format: cell-based; details: Chlorocebus sabaeus, Vero, African green monkey kidney cells
[1] = Hela cell cytotoxicity (CC50); details: human, HeLa cells (human cervical cancer cells), CC50_Hela, half of the toxic concentration
[2] = test system: Mycobacterium smegmatis strain ATCC19420; test: In vitro efficacy test using Mycobacterium smegmatis strain ATCC19420 (MIC); format: cell-based; details: Mycolicibacterium smegmatis, ATCC19420, 72 h, CA-MHB + 0.02% Tween 80, 30° C., read after 72 hours
M. tuberculosis H37R = test: microbe, parasite or virus in culture; format: cell-based, Mycobacterium tuberculosis; details: Mycobacterium tuberculosis, H37R; read-out: M. tuberculosis H37R LORA (MIC)
M. tuberculosis H37Rv = test: In vitro efficacy test using the H37Rv strain, Microplate Alamar Blue Assay (MABA) MIC; format: cell-based, Mycobacterium tuberculosis; details: Mycobacterium tuberculosis, H37RV, aerobic; 7H9 medium, Alamar Blue; read-out: M. tuberculosis H37Rv MABA (MIC)
[3] = test system: Mycobacterium tuberculosis (ATCC35801); test: In vivo efficacy in a mice model infected with M. tuberculosis by spray (lung bacteria load); details: female Balb/c mice, 15 mg/kg by gavage once each working day for four weeks, day 35, compared with the solvent treated group

In the case of `COc1ncc(-c2ccc(Br)cc2)cc1C(c1ccccc1)C(O)(CCN(C)C)c1cccc(F)c1` (stereo not shown) [Compound 319], the IC50 (Vero Cell) is reported as greater than 32 µg/mL, the CC50 [1] is reported as 49.2 µg/mL (≈ 89.5 µM) and the MIC [2] is reported as 0.0312 µg/mL. It also gave an MIC (M. tuberculosis H37R) of 0.22 µg/mL (≈ 0.4 µM) and an MIC (M. tuberculosis H37Rv) of 0.09 µg/mL (≈ 0.164 µM).

Compound `COc1ncc(-c2ccc(Br)cc2)cc1C(c1ccc(Cl)cc1)C(O)(CCN(C)C)c1cccc2ccccc12` (stereo not shown) [Compound 325, 1-(5-(4-bromophenyl)-2-methoxypyridin-3-yl)-1-(4-chlorophenyl)-4-dimethylamino-2-(naphthalen-1-yl)butan-2-ol] has an IC50 (Vero Cell) greater than 32 µg/mL, a CC50 [1] greater than 64 µg/mL and an MIC [2] of 0.0312 µg/mL. For the same compound, the MIC (M. tuberculosis H37R) was 0.125 µg/mL (≈ 0.203 µM) and the MIC (M. tuberculosis H37Rv) was 0.04 µg/mL (≈ 0.0649 µM).

In the case of `COc1ncc(-c2ccc(Br)c(F)c2)cc1C(c1ccccc1)C(O)(CCN(C)C)c1cccc2ccccc12` (stereo not shown) [Compound 331, 1-(5-(4-bromo-3-fluorophenyl)-2-methoxypyridin-3-yl)-4-(dimethylamino)-2-(naphthalen-1-yl)-1-phenylbutan-2-ol], the IC50 (Vero Cell) is reported as greater than 32 µg/mL, the CC50 [1] is reported as greater than 64 µg/mL and the MIC [2] is reported as 0.0625 µg/mL. The MIC (M. tuberculosis H37R) was 4.07 µg/mL (≈ 6.79 µM) and the MIC (M. tuberculosis H37Rv) was 0.04 µg/mL (≈ 0.0667 µM).

Work on `COc1ncc(C#Cc2ccccc2)cc1C(c1ccccc1)C(O)(CCN(C)C)c1cccc2ccccc12` (stereo not shown) [Compound 337, 4-(dimethylamino)-1-[2-methoxy-5-(2-phenylethynyl)-3-pyridyl]-2-(1-naphthyl)-1-phenyl-butan-2-ol] yielded an IC50 (Vero Cell) greater than 32 µg/mL, a CC50 [1] greater than 64 µg/mL and an MIC [2] of 0.25 µg/mL. For the same compound, the MIC (M. tuberculosis H37R) was 1.51 µg/mL (≈ 2.87 µM) and the MIC (M. tuberculosis H37Rv) was 0.14 µg/mL (≈ 0.266 µM).

In the case of `COc1ncc(-c2ccc(Cl)cc2)cc1C(c1ccccc1)C(O)(CCN(C)C)c1cc(Cl)cc(Cl)c1` (stereo not shown) [Compound 341, 1-(5-(4-chlorophenyl)-2-methoxypyridin-3-yl)-2-(3,5-dichlorophenyl)-4-(dimethylamino)-1-phenylbutan-2-ol], the IC50 (Vero Cell) is reported as greater than 32 µg/mL, the CC50 [1] is reported as greater than 64 µg/mL and the MIC [2] is reported as no more than 0.0625 µg/mL. For the same compound, the MIC (M. tuberculosis H37R) was 0.23 µg/mL (≈ 0.414 µM) and the MIC (M. tuberculosis H37Rv) was 0.031 µg/mL (≈ 0.0558 µM).

Compound `COc1ncc(-c2ccc(F)c(F)c2)cc1C(c1ccccc1)C(O)(CCN(C)C)c1cccc2ccccc12` (stereo not shown) [Compound 347] has an IC50 (Vero Cell) greater than 32 µg/mL, a CC50 [1] greater than 64 µg/mL and an MIC [2] of 0.0625 µg/mL. The MIC (M. tuberculosis H37R) was 0.51 µg/mL (≈ 0.947 µM) and the MIC (M. tuberculosis H37Rv) was 0.23 µg/mL (≈ 0.427 µM).

In the case of `COc1ncc(-c2ccc(Cl)cc2)cc1C(c1ccccc1)C(O)(CCN(C)C)c1cccc(Cl)c1` (stereo not shown) [Compound 351, 2-(3-chlorophenyl)-1-(5-(4-chlorophenyl)-2-methoxypyridin-3-yl)-4-(dimethylamino)-1-phenylbutan-2-ol], the IC50 (Vero Cell) is reported as greater than 32 µg/mL, the CC50 [1] is reported as 25.5 µg/mL (≈ 48.9 µM) and the MIC [2] is reported as 0.0156 µg/mL. The MIC (M. tuberculosis H37R) was 0.16 µg/mL (≈ 0.307 µM) and the MIC (M. tuberculosis H37Rv) was 0.11 µg/mL (≈ 0.211 µM).

Compound `COc1ncc(-c2ccc(Br)cc2)cc1C(c1ccccc1)C(O)(CCN(C)C)c1cccc(Cl)c1` (stereo not shown) [Compound 355, 1-(5-(4-bromophenyl)-2-methoxypyridin-3-yl)-2-(3-chlorophenyl)-4-(dimethylamino)-1-phenylbutan-2-ol] has an IC50 (Vero Cell) greater than 32 µg/mL, a CC50 [1] of 53.2 µg/mL (≈ 94.1 µM) and an MIC [2] of 0.0156 µg/mL. For the same compound, the MIC (M. tuberculosis H37R) was 0.21 µg/mL (≈ 0.371 µM) and the MIC (M. tuberculosis H37Rv) was 0.17 µg/mL (≈ 0.3 µM).

`COc1ncc(-c2ccc(OC(F)(F)F)cc2)cc1C(c1ccccc1)C(O)(CCN(C)C)c1cccc2ccccc12` (stereo not shown) [Compound 375, 4-(dimethylamino)-1 (2-methoxy-5-(4-(trifluoromethoxy)phenyl)pyridin-3-yl)-2-(naphthalen-1-yl)-1-phenylbutan-2-ol] showed an IC50 (Vero Cell) greater than 32 µg/mL, a CC50 [1] greater than 64 µg/mL and an MIC [2] of 0.0156 µg/mL. For the same compound, the MIC (M. tuberculosis H37R) was 0.61 µg/mL (≈ 1.04 µM) and the MIC (M. tuberculosis H37Rv) was 0.031 µg/mL (≈ 0.0528 µM).

For `CO[C@H]1/C=C/O[C@@]2(C)Oc3c(C)c(O)c4c(O)c(c(/C=N/N5CCN(C)CC5)c(O)c4c3C2=O)NC(=O)/C(C)=C\C=C\[C@H](C)[C@H](O)[C@@H](C)[C@@H](O)[C@@H](C)[C@H](OC(C)=O)[C@@H]1C` [rifampicin], the “reduction of the amount of the bacteria in the lungs” value [3] was 1.8 log.
